# Reference: patent US20230088214A1, “GLYCOLATE OXIDASE INHIBITORS FOR THE TREATMENT OF DISEASE” (BIOMARIN PHARMACEUTICAL INC., priority 2019, published 2023)
# Molecular target: T1, GO (Homo sapiens, UniProt Q9UJM8)
# T1 sequence (Q9UJM8 1-370): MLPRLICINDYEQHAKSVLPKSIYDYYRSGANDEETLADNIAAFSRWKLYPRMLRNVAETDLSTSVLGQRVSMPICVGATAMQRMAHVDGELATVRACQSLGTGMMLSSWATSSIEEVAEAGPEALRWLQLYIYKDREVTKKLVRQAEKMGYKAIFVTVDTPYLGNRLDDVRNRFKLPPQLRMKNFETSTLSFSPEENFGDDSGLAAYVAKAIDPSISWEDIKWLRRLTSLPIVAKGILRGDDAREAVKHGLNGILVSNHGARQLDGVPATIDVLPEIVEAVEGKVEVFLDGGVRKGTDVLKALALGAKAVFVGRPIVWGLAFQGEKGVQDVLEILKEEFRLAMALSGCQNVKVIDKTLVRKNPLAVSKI
# Experiment: GO Enzymatic Assay (Assay 1)
# Type: biochemical
# Parameters: purchased Novus Biologicals NBP1-72412
# Conditions: Table 4; class symbols without asterisk, GO Enzymatic Assay (Assay 1); read-out: Range
# Method: Assay 1: GO Enzymatic Assay
# GO was incubated with its substrate, glycolate, in 50 mM potassium phosphate buffer, pH 7. […] The enzyme was optimized and the kinetics was determined.
# Compound inhibition was determined by adding various concentrations of inhibitors in the GO enzyme assay. The IC50 value for each measured compound was generated from sigmoidal dose-response (variable slope) curves with GraphPad Prism software (GraphPad Software, Inc., San Diego, Calif.) using the percent inhibition of GO activity relative to DMSO control.
row,Compound,IC50
1,"N#Cc1ccc(Oc2nn[nH]c2C(=O)O)cc1OCc1ccc(F)cc1 [Compound 390, 4-(4-cyano-3-((4-fluorobenzyl)oxy)phenoxy)-1H-1,2,3-triazole-5-carboxylic acid]",< 100 nM
2,"N#Cc1ccc(-c2ccc(Oc3nn[nH]c3C(=O)O)cc2Cl)cc1 [Compound 394, 4-((2-chloro-4′-cyano-[1,1′-biphenyl]-4-yl)oxy)-1H-1,2,3-triazole-5-carboxylic acid]",< 100 nM
3,"NC(=O)c1ccc(-c2ccc(Oc3nn[nH]c3C(=O)O)cc2)cc1 [Compound 397, 4-((4′-carbamoyl-[1,1′-biphenyl]-4-yl)oxy)-1H-1,2,3-triazole-5-carboxylic acid]",< 100 nM
4,"O=C(O)c1[nH]nnc1Sc1ccc(-c2ccc(Cl)cc2)c(OCC2CCCC2)c1 [Compound 398, 4-((4′-chloro-2-(cyclopentylmethoxy)-[1,1′-biphenyl]-4-yl)thio)-1H-1,2,3-triazole-5-carboxylic acid 2,2,2-trifluoroacetate]",< 100 nM
5,"O=C(O)c1[nH]nnc1O[C@H]1CC[C@H](c2ccc(-n3cnnc3)cc2)CC1 [Compound 403, 4-(((trans)-4-(4-(4H-1,2,4-triazol-4-yl)phenyl)cyclohexyl)oxy)-1H-1,2,3-triazole-5-carboxylic acid]",< 100 nM
6,"N#Cc1ccc([C@H]2C[C@H](Oc3nn[nH]c3C(=O)O)C2)cc1 [Compound 404, 4-((trans)-3-(4-cyanophenyl)cyclobutoxy)-1H-1,2,3-triazole-5-carboxylic acid 2,2,2-trifluoroacetate]",< 100 nM
7,"O=C(O)c1[nH]nnc1O[C@H]1CC[C@H](c2ccc(-n3cncn3)cc2)CC1 [Compound 405, 4-(((trans)-4-(4-(1H-1,2,4-triazol-1-yl)phenyl)cyclohexyl)oxy)-1H-1,2,3-triazole-5-carboxylic acid]",< 100 nM
8,"O=C(O)c1[nH]nnc1O[C@H]1CC[C@H](c2ccc3ncccc3c2)CC1 [Compound 409, 4-(((trans)-4-(quinolin-6-yl)cyclohexyl)oxy)-1H-1,2,3-triazole-5-carboxylic acid 2,2,2-trifluoroacetate]",< 100 nM
9,"O=C(O)c1[nH]nnc1S[C@H]1CC[C@H](c2cc(OC(F)(F)F)ccc2Cl)CC1 [Compound 411, 4-(((trans)-4-(2-chloro-5-(trifluoromethoxy)phenyl)cyclohexyl)thio)-1H-1,2,3-triazole-5-carboxylic acid]",< 100 nM
10,"O=C(O)c1[nH]nnc1O[C@H]1CC[C@H](c2ccc(N3CCCC3=O)cc2)CC1 [Compound 412, 4-(((trans)-4-(4-(2-oxopyrrolidin-1-yl)phenyl)cyclohexyl)oxy)-1H-1,2,3-triazole-5-carboxylic acid]",< 100 nM
11,"O=C(O)c1[nH]nnc1O[C@H]1CC[C@H](c2ccc(C(=O)N3CCOCC3)cc2)CC1 [Compound 416, 4-(((trans)-4-(4-(morpholine-4-carbonyl)phenyl)cyclohexyl)oxy)-1H-1,2,3-triazole-5-carboxylic acid 2,2,2-trifluoroacetate]",< 100 nM
12,"O=C(O)c1[nH]nnc1O[C@H]1CC[C@H](c2ccc(C(=O)N3CCCCC3)cc2)CC1 [Compound 417, 4-(((trans)-4-(4-(piperidine-1-carbonyl)phenyl)cyclohexyl)oxy)-1H-1,2,3-triazole-5-carboxylic acid 2,2,2-trifluoroacetate]",< 100 nM
13,"N#Cc1ccc([C@H]2C[C@H](Sc3nn[nH]c3C(=O)O)C2)cc1 [Compound 420, 4-(((trans)-3-(4-cyanophenyl)cyclobutyl)thio)-1H-1,2,3-triazole-5-carboxylic acid 2,2,2-trifluoroacetate]",< 100 nM
14,"O=C(O)c1[nH]nnc1O[C@H]1CC[C@H](c2ccc(F)cc2F)CC1 [Compound 424, 4-(((trans)-4-(2,4-difluorophenyl)cyclohexyl)oxy)-1H-1,2,3-triazole-5-carboxylic acid 2,2,2-trifluoroacetate]",< 100 nM
15,"O=C(O)c1[nH]nnc1O[C@H]1C[C@H](c2ccc(N3CCCCC3)cc2)C1 [Compound 426, 4-((trans)-3-(4-(piperidin-1-yl)phenyl)cyclobutoxy)-1H-1,2,3-triazole-5-carboxylic acid 2,2,2-trifluoroacetate]",< 100 nM
16,"O=C(O)c1[nH]nnc1S[C@H]1CC[C@H](c2cc(Cl)ccc2OC(F)(F)F)CC1 [Compound 430, 4-(((trans)-4-(5-chloro-2-(trifluoromethoxy)phenyl)cyclohexyl)thio)-1H-1,2,3-triazole-5-carboxylic acid]",< 100 nM
17,"O=C(O)c1[nH]nnc1S[C@H]1CC[C@H](c2ccc(N3CCCCC3)cc2)CC1 [Compound 432, 4-(((trans)-4-(4-(piperidin-1-yl)phenyl)cyclohexyl)thio)-1H-1,2,3-triazole-5-carboxylic acid 2,2,2-trifluoroacetate]",< 100 nM
18,"O=C(O)c1[nH]nnc1S[C@H]1C[C@H](c2ccc(N3CCCCC3)cc2)C1 [Compound 434, 4-(((trans)-3-(4-(piperidin-1-yl)phenyl)cyclobutyl)thio)-1H-1,2,3-triazole-5-carboxylic acid 2,2,2-trifluoroacetate]",< 100 nM
19,"O=C(O)c1[nH]nnc1O[C@H]1CC[C@H](c2ccc(N3CCCCC3)cc2)CC1 [Compound 436, 4-(((trans)-4-(4-(piperidin-1-yl)phenyl)cyclohexyl)oxy)-1H-1,2,3-triazole-5-carboxylic acid 2,2,2-trifluoroacetate]",< 100 nM
20,"CS(=O)(=O)c1ccc([C@H]2CC[C@H](Sc3nn[nH]c3C(=O)O)CC2)cc1 [Compound 439, 4-(((trans)-4-(4-(methylsulfonyl)phenyl)cyclohexyl)thio)-1H-1,2,3-triazole-5-carboxylic acid 2,2,2-trifluoroacetate]",< 100 nM

# Next, values leading:
row,IC50,Compound
1,< 100 nM,"O=C(O)c1[nH]nnc1O[C@H]1CC[C@H](c2cc(OC(F)(F)F)ccc2Cl)CC1 [Compound 395, 4-(((trans)-4-(2-chloro-5-(trifluoromethoxy)phenyl)cyclohexyl)oxy)-1H-1,2,3-triazole-5-carboxylic acid]"
2,< 100 nM,"O=C(O)c1[nH]nnc1O[C@H]1CC[C@@H](c2cc(OC(F)(F)F)ccc2Cl)CC1 [Compound 396, 4-(((cis)-4-(2-chloro-5-(trifluoromethoxy)phenyl)cyclohexyl)oxy)-1H-1,2,3-triazole-5-carboxylic acid]"
3,< 100 nM,"O=C(O)c1[nH]nnc1Oc1ccc(Cl)c(OC2CCCCC2)c1 [Compound 399, 4-(4-chloro-3-(cyclohexyloxy)phenoxy)-1H-1,2,3-triazole-5-carboxylic acid 2,2,2-trifluoroacetate]"
4,< 100 nM,"O=C(O)c1[nH]nnc1S[C@H]1CC[C@H](c2ccc3ncccc3c2)CC1 [Compound 410, 4-(((trans)-4-(quinolin-6-yl)cyclohexyl)thio)-1H-1,2,3-triazole-5-carboxylic acid 2,2,2-trifluoroacetate]"
5,< 100 nM,"CN(C)C(=O)c1ccc([C@H]2CC[C@H](Oc3nn[nH]c3C(=O)O)CC2)cc1 [Compound 414, 4-(((trans)-4-(4-(dimethylcarbamoyl)phenyl)cyclohexyl)oxy)-1H-1,2,3-triazole-5-carboxylic acid 2,2,2-trifluoroacetate]"
6,< 100 nM,"O=C(O)c1[nH]nnc1O[C@H]1CC[C@H](c2ccc(-n3cccn3)cc2)CC1 [Compound 418, 4-(((trans)-4-(4-(1H-pyrazol-1-yl)phenyl)cyclohexyl)oxy)-1H-1,2,3-triazole-5-carboxylic acid]"
7,< 100 nM,"O=C(O)c1[nH]nnc1O[C@H]1CC[C@H](c2ccc(OC(F)(F)F)c(Cl)c2)CC1 [Compound 419, 4-(((trans)-4-(3-chloro-4-(trifluoromethoxy)phenyl)cyclohexyl)oxy)-1H-1,2,3-triazole-5-carboxylic acid]"
8,< 100 nM,"O=C(O)c1[nH]nnc1S[C@H]1CC[C@H](c2ccc(OC(F)(F)F)cc2)CC1 [Compound 422, 4-(((trans)-4-(4-(trifluoromethoxy)phenyl)cyclohexyl)thio)-1H-1,2,3-triazole-5-carboxylic acid]"
9,< 100 nM,"N#Cc1ccc(COc2cc(Oc3nn[nH]c3C(=O)O)ccc2Cl)cc1 [Compound 423, 4-(4-chloro-3-((4-cyanobenzyl)oxy)phenoxy)-1H-1,2,3-triazole-5-carboxylic acid]"
10,< 100 nM,"O=C(O)c1[nH]nnc1O[C@H]1CC[C@H](c2ccc(-c3nnc[nH]3)cc2)CC1 [Compound 425, 4-(((trans)-4-(4-(4H-1,2,4-triazol-3-yl)phenyl)cyclohexyl)oxy)-1H-1,2,3-triazole-5-carboxylic acid]"
11,< 100 nM,"O=C(O)c1[nH]nnc1O[C@H]1CC[C@H](c2ccc(-c3nncs3)cc2)CC1 [Compound 431, 4-(((trans)-4-(4-(1,3,4-thiadiazol-2-yl)phenyl)cyclohexyl)oxy)-1H-1,2,3-triazole-5-carboxylic acid 2,2,2-trifluoroacetate]"
12,< 100 nM,"O=C(O)c1[nH]nnc1O[C@H]1CC[C@H](c2ccc(-c3nnco3)cc2)CC1 [Compound 433, 4-(((trans)-4-(4-(1,3,4-oxadiazol-2-yl)phenyl)cyclohexyl)oxy)-1H-1,2,3-triazole-5-carboxylic acid]"
13,< 100 nM,"CS(=O)(=O)c1ccc([C@H]2CC[C@H](Oc3nn[nH]c3C(=O)O)CC2)cc1 [Compound 438, 4-(((trans)-4-(4-(methylsulfonyl)phenyl)cyclohexyl)oxy)-1H-1,2,3-triazole-5-carboxylic acid]"
